Here are results for 21 compounds from patent publication EP4685149A1, “NOVEL COMPOUND AS ENDOTHELIAL TO MESENCHYMAL TRANSITION (ENDMT) INHIBITOR, AND PHARMACEUTICAL COMPOSITION COMPRISING SAME” (Korea Institute of Radiological & Medical Sciences, priority 2023, dated 2024).

Molecules are shown by their SMILES. Like-named read-outs stand apart in the source and are kept apart here.

This assay deals with human vascular endothelial cell lines. Kind of assay: Inhibition of radiation-induced endothelial cell transition (EndMT), phalloidin immunofluorescence staining. The class given is cell-based. Conditions: 10 uM test substance 1 hour before 10 Gy irradiation, 72 hours after irradiation, relative ratio with IR group (10 Gy alone) as 100%; for activity at 10 µM: Homo sapiens, Endothelial cell, light or radiation study. The protocol:
Test substances (Examples 1 to 45) were treated with a 10 mM DMSO solution at a ratio of 1 µL per 1 mL of cell culture medium to a final concentration of 10 uM, and the test substances were treated 1 hour before irradiation on human vascular endothelial cell lines (Promocell, Germany), and then, it was irradiated at an intensity of 10 Gy. 72 hours after irradiation, the human vascular endothelial cell lines were fixed with 10% formalin, and the experiment was conducted according to the manufacturer's method using phalloidin (Invitrogen, USA) to confirm the cytoskeleton filaments that increase during fibrosis. Phalloidin is a protein that binds to the actin of cytoskeleton filaments, and phalloidin conjugated with FITC fluorescent substance made the cytoskeleton filaments appear green when observed under a microscope.
After treatment with the test substance, the area, length and density of phalloidin were measured by using a confocal microscope, and the relative ratio was expressed with the irradiated group (IR group) that was irradiated with 10 Gy alone as 100% (Table 1).

On to `N#Cc1cccc2c1CC[C@H]2Nc1nc(Cl)nc2c1ncn2[C@@H]1SC[C@@H](O)[C@H]1O` [Example 24, (1R)-1-[[2-chloro-9-[(2R,3R,4S)-3,4-dihydroxytetrahydrothiophen-2-yl]purin-6-yl]amino]indane-4-carbonitrile], for which the activity at 10 µM (read-out: Palloidin Area) lay within 50 to 80%, the activity at 10 µM (read-out: Palloidin Intensity) lay within 50 to 80% and the activity at 10 µM (read-out: Palloidin Length) lay in the range of 50 to 80%.
Regarding `NC(=O)c1cccc2c1CC[C@H]2Nc1nc(Cl)nc2c1ncn2[C@@H]1SC[C@@H](O)[C@H]1O` [Example 25, (R)-1-((2-chloro-9-((2R,3R,4S)-3,4-dihydroxytetrahydrothiophen-2-yl)-9H-purin-6-yl)amino)-2,3-dihydro-1H-indene-4-carboxamide], the activity at 10 µM by setting is: (read-out: Palloidin Area) above 80%; (read-out: Palloidin Intensity) above 80%; (read-out: Palloidin Length) above 80%.
With `O[C@@H]1[C@H](O)CS[C@H]1n1cnc2c(N[C@@H]3CCc4cccc(Br)c43)nc(Cl)nc21` [Example 26, (2R,3R,4S)-2-[2-chloro-6-[[(1R)-7-bromoindan-1-yl]amino]purin-9-yl]tetrahydrothiophene-3,4-diol], the activity at 10 µM by setting is: (read-out: Palloidin Area) 20 to 50%; (read-out: Palloidin Intensity) 50 to 80%; (read-out: Palloidin Length) 50 to 80%.
As for `Cc1ccc2c(c1)CC[C@H]2Nc1nc(Cl)nc2c1ncn2[C@@H]1SC[C@@H](O)[C@H]1O` [Example 27, (2R,3R,4S)-2-[2-chloro-6-[[(1R)-5-methylindan-1-yl]amino]purin-9-yl]tetrahydrothiophene-3,4-diol], the activity at 10 µM by setting is: (read-out: Palloidin Area) above 80%; (read-out: Palloidin Intensity) above 80%; (read-out: Palloidin Length) above 80%.
With `O[C@@H]1[C@H](O)CS[C@H]1n1cnc2c(N[C@@H]3CCc4cc(C(F)(F)F)ccc43)nc(Cl)nc21` [Example 28, (2R,3R,4S)-2-[2-chloro-6-[[(1R)-5-(trifluoromethyl)indan-1-yl]amino]purin-9-yl]tetrahydrothiophene-3,4-diol], the activity at 10 µM runs as follows: (read-out: Palloidin Area) 50 to 80%; (read-out: Palloidin Intensity) 50 to 80%; (read-out: Palloidin Length) above 80%.
As for `N#Cc1ccc2c(c1)CC[C@H]2Nc1nc(Cl)nc2c1ncn2[C@@H]1SC[C@@H](O)[C@H]1O` [Example 29, (1R)-1-[[2-chloro-9-[(2R,3R,4S)-3,4-dihydroxytetrahydrothiophen-2-yl]purin-6-yl]amino]indane-5-carbonitrile], the activity at 10 µM reads like this: (read-out: Palloidin Area) 50 to 80%; (read-out: Palloidin Intensity) 50 to 80%; (read-out: Palloidin Length) above 80%.
Regarding `COC(=O)c1cccc2c1CC[C@H]2Nc1nc(Cl)nc2c1ncn2[C@@H]1SC[C@@H](O)[C@H]1O` [Example 30, Methyl (R)-1-((2-chloro-9-((2R,3R,4S)-3,4-dihydroxytetrahydrothiophen-2-yl)-9H-purin-6-yl)amino)-2,3-dihydro-1H-indene-4-carboxylate], the activity at 10 µM was above 80% (read-out: Palloidin Area), above 80% (read-out: Palloidin Intensity) and above 80% (read-out: Palloidin Length).
On to `COC(=O)c1ccc2c(c1)CC[C@H]2Nc1nc(Cl)nc2c1ncn2[C@@H]1SC[C@@H](O)[C@H]1O` [Example 31, Methyl (R)-1-((2-chloro-9-((2R,3R,4S)-3,4-dihydroxytetrahydrothiophen-2-yl)-9H-purin-6-yl)amino)-2,3-dihydro-1H-indene-5-carboxylate], for which the activity at 10 µM reads like this: (read-out: Palloidin Area) above 80%; (read-out: Palloidin Intensity) above 80%; (read-out: Palloidin Length) above 80%.
As to `O=C(O)c1cccc2c1CC[C@H]2Nc1nc(Cl)nc2c1ncn2[C@@H]1SC[C@@H](O)[C@H]1O` [Example 32, (R)-1-((2-chloro-9-((2R,3R,4S)-3,4-dihydroxytetrahydrothiophen-2-yl)-9H-purin-6-yl)amino)-2,3-dihydro-1H-indene-4-carboxylic acid], the activity at 10 µM reads like this: (read-out: Palloidin Area) above 80%; (read-out: Palloidin Intensity) above 80%; (read-out: Palloidin Length) above 80%.
For the compound `O=C(O)c1ccc2c(c1)CC[C@H]2Nc1nc(Cl)nc2c1ncn2[C@@H]1SC[C@@H](O)[C@H]1O` [Example 33, (R)-1-((2-chloro-9-((2R,3R,4S)-3,4-dihydroxytetrahydrothiophen-2-yl)-9H-purin-6-yl)amino)-2,3-dihydro-1H-indene-5-carboxylic acid], the activity at 10 µM is above 80% (read-out: Palloidin Area), above 80% (read-out: Palloidin Intensity) and above 80% (read-out: Palloidin Length).
Regarding `NC(=O)c1ccc2c(c1)CC[C@H]2Nc1nc(Cl)nc2c1ncn2[C@@H]1SC[C@@H](O)[C@H]1O` [Example 34, (R)-1-((2-chloro-9-((2R,3R,4S)-3,4-dihydroxytetrahydrothiophen-2-yl)-9H-purin-6-yl)amino)-2,3-dihydro-1H-indene-5-carboxamide], the “Palloidin Length” value was “+ +”. In addition, the activity at 10 µM (read-out: Palloidin Area) was above 80%. In addition, the activity at 10 µM (read-out: Palloidin Intensity) is above 80%.
For the compound `O[C@@H]1[C@H](O)CS[C@H]1n1cnc2c(NC3CCc4ccccc4C3)nc(Cl)nc21` (stereo partly drawn) [Example 35, (2R,3R,4S)-2-(2-chloro-6-((1,2,3,4-tetrahydronaphthalen-2-yl)amino)-9H-purin-9-yl)tetrahydrothiophene-3,4-diol], the activity at 10 µM is, setting by setting: (read-out: Palloidin Area) above 80%; (read-out: Palloidin Intensity) above 80%; (read-out: Palloidin Length) above 80%.
With `O[C@@H]1[C@H](O)CS[C@H]1n1cnc2c(N[C@H]3CCc4ccccc4C3)nc(Cl)nc21` [Example 36, (2R,3R,4S)-2-(2-chloro-6-(((S)-1,2,3,4-tetrahydronaphthalen-2-yl)amino)-9H-purin-9-yl)tetrahydrothiophene-3,4-diol], the activity at 10 µM runs as follows: (read-out: Palloidin Area) above 80%; (read-out: Palloidin Intensity) above 80%; (read-out: Palloidin Length) above 80%.
Consider `O[C@@H]1[C@H](O)CS[C@H]1n1cnc2c(N[C@@H]3CCc4ccccc4C3)nc(Cl)nc21` [Example 37, (2R,3R,4S)-2-(2-chloro-6-(((R)-1,2,3,4-tetrahydronaphthalen-2-yl)amino)-9H-purin-9-yl)tetrahydrothiophene-3,4-diol], for which the activity at 10 µM reads like this: (read-out: Palloidin Area) 50 to 80%; (read-out: Palloidin Intensity) 50 to 80%; (read-out: Palloidin Length) above 80%.
For the compound `O[C@@H]1[C@H](O)CS[C@H]1n1cnc2c(NC3CCCc4ccccc43)nc(Cl)nc21` (stereo partly drawn) [Example 38, (2R,3R,4S)-2-(2-chloro-6-((1,2,3,4-tetrahydronaphthalen-1-yl)amino)-9H-purin-9-yl)tetrahydrothiophene-3,4-diol], the activity at 10 µM runs as follows: (read-out: Palloidin Area) above 80%; (read-out: Palloidin Intensity) above 80%; (read-out: Palloidin Length) above 80%.
On to `O[C@@H]1[C@H](O)CS[C@H]1n1cnc2c(N[C@@H]3CCCc4ccccc43)nc(Cl)nc21` [Example 39, (2R,3R,4S)-2-(2-chloro-6-(((R)-1,2,3,4-tetrahydronaphthalen-1-yl)amino)-9H-purin-9-yl)tetrahydrothiophene-3,4-diol], for which the activity at 10 µM reads like this: (read-out: Palloidin Area) above 80%; (read-out: Palloidin Intensity) above 80%; (read-out: Palloidin Length) above 80%.
With `O[C@@H]1[C@H](O)CS[C@H]1n1cnc2c(N[C@H]3CCCc4ccccc43)nc(Cl)nc21` [Example 40, (2R,3R,4S)-2-(2-chloro-6-(((S)-1,2,3,4-tetrahydronaphthalen-1-yl)amino)-9H-purin-9-yl)tetrahydrothiophene-3,4-diol], the activity at 10 µM was above 80% (read-out: Palloidin Area), above 80% (read-out: Palloidin Intensity) and above 80% (read-out: Palloidin Length).
`O[C@@H]1[C@H](O)CS[C@H]1n1cnc2c(N[C@@H]3Cc4ccccc43)nc(Cl)nc21` [Example 41, (2R,3R,4S)-2-(6-(((R)-bicyclo[4.2.0]octa-1(6),2,4-trien-7-yl)amino)-2-chloro-9H-purin-9-yl)tetrahydrothiophene-3,4-diol]: the activity at 10 µM was above 80% (read-out: Palloidin Area), 50 to 80% (read-out: Palloidin Intensity) and above 80% (read-out: Palloidin Length).
Regarding `O[C@@H]1[C@H](O)CS[C@H]1n1cnc2c(NC3CCCCc4ccccc43)nc(Cl)nc21` (stereo partly drawn) [Example 42, (2R,3R,4S)-2-(2-chloro-6-((6,7,8,9-tetrahydro-5H-benzo[7]annulen-5-yl)amino)-9H-purin-9-yl)tetrahydrothiophene-3,4-diol], the activity at 10 µM is above 80% (read-out: Palloidin Area), above 80% (read-out: Palloidin Intensity) and above 80% (read-out: Palloidin Length).
As to `O[C@@H]1[C@H](O)CS[C@H]1n1cnc2c(NC3CCc4ccccc4CC3)nc(Cl)nc21` [Example 43, (2R,3R,4S)-2-(2-chloro-6-((6,7,8,9-tetrahydro-5H-benzo[7]annulen-7-yl)amino)-9H-purin-9-yl)tetrahydrothiophene-3,4-diol], the activity at 10 µM by setting is: (read-out: Palloidin Area) above 80%; (read-out: Palloidin Intensity) above 80%; (read-out: Palloidin Length) above 80%.
For the compound `O[C@@H]1[C@H](O)CS[C@H]1n1cnc2c(N[C@@H]3CCc4ccccc43)nc(I)nc21` [Example 44, (2R,3R,4S)-2-(6-(((R)-2,3-dihydro-1H-inden-1-yl)amino)-2-iodo-9H-purin-9-yl)tetrahydrothiophene-3,4-diol], the activity at 10 µM is, setting by setting: (read-out: Palloidin Area) 20 to 50%; (read-out: Palloidin Intensity) 20 to 50%; (read-out: Palloidin Length) 20 to 50%.
